Species: Rattus norvegicus
Type: toxicity, organism-based, Sprague-Dawley
Conditions: in vivo, ip, route intraperitoneal, vehicle 100 % SALINE; for ABSOLUTE EOSINOPHIL / ABSOLUTE LYMPHOCYTE / ABSOLUTE MONOCYTE / ABSOLUTE SEGMENTED NEUTROPHIL / BASOPHIL / EOSINOPHIL / ERYTHROCYTE COUNT / HEMATOCRIT / HEMOGLOBIN / LEUKOCYTE COUNT / LYMPHOCYTE / MEAN CORPUSCULAR HEMOGLOBIN / MEAN CORPUSCULAR HEMOGLOBIN CONCENTRATION / MEAN CORPUSCULAR VOLUME / MONOCYTE / NEUTROPHIL / NUCLEATED RED BLOOD CELLS / PLATELET COUNT: tissue Blood; for ALANINE AMINOTRANSFERASE / ALBUMIN / ALKALINE PHOSPHATASE / ASPARTATE AMINOTRANSFERASE / BLOOD UREA NITROGEN / CARBON DIOXIDE / CHLORIDE / CHOLESTEROL / CREATINE PHOSPHOKINASE / CREATININE / GLUCOSE / LACTATE DEHYDROGENASE / LIPASE / PHOSPHORUS / POTASSIUM / SODIUM / TOTAL BILIRUBIN / TOTAL PROTEIN / URIC ACID: tissue Plasma
[1] = 0 mg/kg, 6 h, vehicle control, dose level Control, time 0.25 day
[2] = 0 mg/kg, 24 h, vehicle control, dose level Control, time 1 day
[3] = 16 mg/kg, 6 h, dose level Low, time 0.25 day

Description: DrugMatrix - Regimen: Single

C=CCO [ALLYL ALCOHOL]
ABSOLUTE EOSINOPHIL [1]: 63 CELLS/uL
ABSOLUTE LYMPHOCYTE [1]: 12886.67 CELLS/uL
ABSOLUTE MONOCYTE [1]: 302.5 CELLS/uL
ABSOLUTE SEGMENTED NEUTROPHIL [1]: 2997.83 CELLS/uL
BASOPHIL [1]: 0%
EOSINOPHIL [1]: 0.33%
ERYTHROCYTE COUNT [1]: 5.45 x10E6/uL
HEMATOCRIT [1]: 34.93%
HEMOGLOBIN [1]: 13.88 G/DL
LEUKOCYTE COUNT [1]: 16.25 x10E3/uL
LYMPHOCYTE [1]: 79.17%
MEAN CORPUSCULAR HEMOGLOBIN [1]: 25.48 pg
MEAN CORPUSCULAR HEMOGLOBIN CONCENTRATION [1]: 39.77 G/DL
MEAN CORPUSCULAR VOLUME [1]: 64.13 fL
MONOCYTE [1]: 1.83%
NEUTROPHIL [1]: 18.67%
NUCLEATED RED BLOOD CELLS [1]: 0 /100WBC
PLATELET COUNT [1]: 1184.67 x10E3/uL
ALANINE AMINOTRANSFERASE [1]: 35 u/L
ALBUMIN [1]: 4.25 G/DL
ALKALINE PHOSPHATASE [1]: 281.83 u/L
ASPARTATE AMINOTRANSFERASE [1]: 79.5 u/L
BLOOD UREA NITROGEN [1]: 11.67 mg/dL
CARBON DIOXIDE [1]: 27 mmol/L
CHLORIDE [1]: 100.33 MEQ/L
CHOLESTEROL [1]: 60.67 mg/dL
CREATINE PHOSPHOKINASE [1]: 275.5 u/L
CREATININE [1]: 0.13 mg/dL
GLUCOSE [1]: 162.5 mg/dL
LACTATE DEHYDROGENASE [1]: 258.83 u/L
LIPASE [1]: 9.33 u/L
PHOSPHORUS [1]: 11.42 mg/dL
POTASSIUM [1]: 6.16 MEQ/L
SODIUM [1]: 145.08 MEQ/L
TOTAL BILIRUBIN [1]: 0.18 mg/dL
TOTAL PROTEIN [1]: 5.73 G/DL
URIC ACID [1]: 1.58 mg/dL
ABSOLUTE EOSINOPHIL [2]: 18.5 CELLS/uL
ABSOLUTE LYMPHOCYTE [2]: 12859.83 CELLS/uL
ABSOLUTE MONOCYTE [2]: 190.83 CELLS/uL
ABSOLUTE SEGMENTED NEUTROPHIL [2]: 1230.83 CELLS/uL
BASOPHIL [2]: 0%
EOSINOPHIL [2]: 0.17%
ERYTHROCYTE COUNT [2]: 5.2 x10E6/uL
HEMATOCRIT [2]: 33.25%
HEMOGLOBIN [2]: 13.37 G/DL
LEUKOCYTE COUNT [2]: 14.3 x10E3/uL
LYMPHOCYTE [2]: 89.83%
MEAN CORPUSCULAR HEMOGLOBIN [2]: 25.73 pg
MEAN CORPUSCULAR HEMOGLOBIN CONCENTRATION [2]: 40.25 G/DL
MEAN CORPUSCULAR VOLUME [2]: 64 fL
MONOCYTE [2]: 1.33%
NEUTROPHIL [2]: 8.67%
NUCLEATED RED BLOOD CELLS [2]: 0 /100WBC
PLATELET COUNT [2]: 1075.5 x10E3/uL
ALANINE AMINOTRANSFERASE [2]: 54.17 u/L
ALBUMIN [2]: 4.25 G/DL
ALKALINE PHOSPHATASE [2]: 280.67 u/L
ASPARTATE AMINOTRANSFERASE [2]: 84.67 u/L
BLOOD UREA NITROGEN [2]: 13.33 mg/dL
CARBON DIOXIDE [2]: 26.33 mmol/L
CHLORIDE [2]: 99.67 MEQ/L
CHOLESTEROL [2]: 72 mg/dL
CREATINE PHOSPHOKINASE [2]: 620 u/L
CREATININE [2]: 0.17 mg/dL
GLUCOSE [2]: 169.17 mg/dL
LACTATE DEHYDROGENASE [2]: 189.17 u/L
LIPASE [2]: 9.67 u/L
PHOSPHORUS [2]: 10.57 mg/dL
POTASSIUM [2]: 5.16 MEQ/L
SODIUM [2]: 142.2 MEQ/L
TOTAL BILIRUBIN [2]: 0.18 mg/dL
TOTAL PROTEIN [2]: 5.78 G/DL
URIC ACID [2]: 1.25 mg/dL
ABSOLUTE EOSINOPHIL [3]: 48.67 CELLS/uL
ABSOLUTE LYMPHOCYTE [3]: 11033.33 CELLS/uL
ABSOLUTE MONOCYTE [3]: 230.5 CELLS/uL
ABSOLUTE SEGMENTED NEUTROPHIL [3]: 2270.83 CELLS/uL
BASOPHIL [3]: 0%
EOSINOPHIL [3]: 0.33%
ERYTHROCYTE COUNT [3]: 5.38 x10E6/uL
HEMATOCRIT [3]: 34.4%
HEMOGLOBIN [3]: 13.45 G/DL
LEUKOCYTE COUNT [3]: 13.58 x10E3/uL
LYMPHOCYTE [3]: 81.17%
MEAN CORPUSCULAR HEMOGLOBIN [3]: 25.12 pg
MEAN CORPUSCULAR HEMOGLOBIN CONCENTRATION [3]: 39.12 G/DL
MEAN CORPUSCULAR VOLUME [3]: 64.18 fL
MONOCYTE [3]: 1.67%
NEUTROPHIL [3]: 16.83%
NUCLEATED RED BLOOD CELLS [3]: 0 /100WBC
PLATELET COUNT [3]: 997.5 x10E3/uL
ALANINE AMINOTRANSFERASE [3]: 66.83 u/L
ALBUMIN [3]: 4.27 G/DL
ALKALINE PHOSPHATASE [3]: 267.67 u/L
ASPARTATE AMINOTRANSFERASE [3]: 90 u/L
BLOOD UREA NITROGEN [3]: 9.33 mg/dL
CARBON DIOXIDE [3]: 28.5 mmol/L
CHLORIDE [3]: 100.17 MEQ/L
CHOLESTEROL [3]: 68 mg/dL
CREATINE PHOSPHOKINASE [3]: 295 u/L
CREATININE [3]: 0.14 mg/dL
GLUCOSE [3]: 153.5 mg/dL
LACTATE DEHYDROGENASE [3]: 198.83 u/L
LIPASE [3]: 11.83 u/L
PHOSPHORUS [3]: 10.27 mg/dL
POTASSIUM [3]: 5.27 MEQ/L
SODIUM [3]: 144.05 MEQ/L
TOTAL BILIRUBIN [3]: 0.1 mg/dL
TOTAL PROTEIN [3]: 5.6 G/DL
URIC ACID [3]: 1.15 mg/dL

From ChEMBL document CHEMBL3885881, “DrugMatrix”
